This passage reports flash point results from a flash point compilation (Sun et al. 2020).

On to `CCOC(=O)C#Cc1ccccc1` [ethyl 3-phenylprop-2-ynoate], for which the flash point came out at 113.00 °C.

`CCOS(=O)(=O)c1ccc(C)cc1` [ethyl 4-methylbenzenesulfonate] showed a flash point of 158.00 °C.

With `CCOC(=O)NC` [ethyl N-methylcarbamate], the flash point amounted to 73.00 °C.

Take `CCCC(=O)OCC` [ethyl butanoate]: the flash point was 24.00 °C.

The compound `CCOC(N)=O` [ethyl carbamate] gave a flash point of 92.00 °C.

`CCON=O` [ethyl nitrite] gave a flash point of -35.00 °C.

`CCOC(=O)CC` [ethyl propanoate] had a flash point of 12.00 °C.

In turn, `CCC1CCCCC1` [ethylcyclohexane] yielded a flash point of 35.00 °C.

`CCSCC` [ethylsulfanylethane] returned a flash point of -10.00 °C.

`c1ccc2c(c1)-c1cccc3cccc-2c13` [fluoranthene] had a flash point of 198.00 °C.

In turn, `O=Cc1ccco1` [furan-2-carbaldehyde] displayed a flash point of 60.00 °C.

Take `OCc1ccco1` [furan-2-ylmethanol]: the flash point was 75.00 °C.

Take `CC(=O)OCc1ccco1` [furan-2-ylmethyl acetate]: the flash point amounted to 66.00 °C.

Regarding `CCCCCCCCCCCCCCCCCCCCC` [henicosane], the flash point is 113.00 °C.

In the case of `CCCCCC(C)O` (configuration not stated) [heptan-2-ol], the flash point turned out to be 71.00 °C.

On to `CCCCCC(C)=O` [heptan-2-one], for which the flash point was found to be 39.00 °C.

In turn, `CCCCC(=O)CC` [heptan-3-one] yielded a flash point of 46.00 °C.

For `CCCC(=O)CCC` [heptan-4-one], the flash point was determined as 49.00 °C.

`CCCCCCC` [heptane] returned a flash point of -4.00 °C.

`CCCCCCCOC(C)=O` [heptyl acetate] yielded a flash point of 68.00 °C.

Regarding `CC=CC=CC(=O)O` [hexa-2,4-dienoic acid], the flash point came to 127.00 °C.

`CCCCCCCCCCCCCCCCN` [hexadecan-1-amine] yielded a flash point of 141.00 °C.

`CCCCCCCCCCCCCCCC` [hexadecane] yielded a flash point of 135.00 °C.

For the compound `CCCCC(C)=O` [hexan-2-one], the flash point was found to be 23.00 °C.

Compound `NCCCCCCN` [hexane-1,6-diamine] showed a flash point of 81.00 °C.

As to `OCCCCCCO` [hexane-1,6-diol], the flash point was found to be 102.00 °C.

For the compound `CC(O)CCC(C)O` (configuration not stated) [hexane-2,5-diol], the flash point was 101.00 °C.

The compound `O=C(O)CCCCC(=O)O` [hexanedioic acid] yielded a flash point of 191.00 °C.

For the compound `C=CC(=O)OCCCCCC` [hexyl prop-2-enoate], the flash point was determined as 68.00 °C.

Regarding `CCCCCCCCCCCCCCCCCCCC` [icosane], the flash point came to 100.00 °C.

`Ic1ccccc1` [iodobenzene]: the flash point turned out to be 77.00 °C.

Compound `O=C=Nc1ccccc1` [isocyanatobenzene] yielded a flash point of 56.00 °C.

On to `CN` [methanamine], for which the flash point came out at 0.00 °C.

As for `CS(=O)(=O)O` [methanesulfonic acid], the flash point came out at 189.00 °C.

`CO` [methanol] came in with a flash point of 11.00 °C.

The compound `COC(=O)c1ccccc1N` [methyl 2-aminobenzoate] showed a flash point of 104.00 °C.

For `COC(=O)CCl` [methyl 2-chloroacetate], the flash point was found to be 52.00 °C.

As to `C=C(C#N)C(=O)OC` [methyl 2-cyanoprop-2-enoate], the flash point stood at 79.00 °C.

On to `COC(=O)C(C)O` (configuration not stated) [methyl 2-hydroxypropanoate], for which the flash point is 51.00 °C.

For the compound `C=C(C)C(=O)OC` [methyl 2-methylprop-2-enoate], the flash point was 10.00 °C.

For the compound `COC(=O)CC(C)=O` [methyl 3-oxobutanoate], the flash point is 70.00 °C.

The compound `COC(=O)c1ccccc1` [methyl benzoate] came in with a flash point of 83.00 °C.
